These results are taken from US6361981B1, “Production of ammonium acrylate” (Ciba Specialty Chemicals Water Treatments Limited, priority 1995, dated 2002).

Test [1] concerns R rhodochrous K22 nitrilase. The conditions noted are these: literature value; read-out: Km for acrylonitrile; cited from earlier work.
In test [2] the test system is nitrilase, a preferred enzyme on which initial experiments were conducted (particularly preferred enzyme: Rhodococcus rhodochrous NCIMB 40757). Put plainly: Km, Ki of preferred nitrilase in whole cell form (Michaelis-Menten kinetics). In kind it is biochemical. How it is done:
The enzyme must have Km for (meth) acrylonitrile, that is whichever of acrylonitrile and (meth) acrylonitrile is being converted, below 500 μm and Ki for ammonium acrylate or ammonium (meth) acrylate, whichever is being produced, above 100,000 μM. In this specification Km and Ki are measured under conditions in which the enzyme obeys Michaelis-Menten kinetics, in particular at pH 7. A preferred measurement technique uses enzyme in whole cell form in 50 mM sodium phosphate buffer at pH 7 and 30° C. and using concentrations of acrylonitrile from 0.01 to 0.5 mM (for Km) and using 1.2 M ammonium acrylate and 0.079 to 0.554 mM acrylonitrile (for Ki).

Test [3] deals with nitrilase enzyme discussed in Biotech and Appl Biochem 11, 581 to 601 (1989). The following applies: literature value; read-out: Km for acrylonitrile; cited from earlier work.

Take `C=CC#N` [acrylonitrile]: the Km (usually the concentration of substrate that gives half-maximal velocity) in test [1] was 1140 µM; in test [2] (whole cell form, preferred technique: 50 mM sodium phosphate buffer, pH 7, 30° C., acrylonitrile 0.01 to 0.5 mM), 30.6 µM; in test [3] it was 17000 µM.

On to `C=CC(=O)O` [ammonium acrylate], for which the “ratio Ki/Km” value in test [2] (Ki for ammonium acrylate / Km for acrylonitrile) was “greater than 10,000”.
